Assay results as given in US7332602B2, “Pyridyl substituted heterocycles useful for treating or preventing HCV infection” (Rigel Pharmaceuticals, Inc., priority 2002, dated 2008).
pIC50: −log10 of the molar value. Where two headings read alike, the source gives them in different places.

Legend:
[1] = system: HCV proteins (HCV replication); test: quantitative Western blot analysis with antibodies specific for certain HCV proteins; assay type: cell-based, Hepatitis C virus; details: Hepatitis C virus, read-out: Western (IC50, 50% reduction in the amount of the specified HCV protein)
Experimental: Certain exemplary compounds of the invention were also tested for their ability to inhibit HCV replication using a quantitative Western blot analysis with antibodies specific for certain HCV proteins. In this assay, the amount of test compound that yielded a 50% reduction in the amount of the specified HCV protein as compared to a control sample (IC50) was determined.

[2] = cytotoxicity assay (Cell Titer Glo); assay type: cell-based; details: human; 48 hr with compound, ATP-dependent Cell Titer Glo; read-out: IC50 (cytotoxicity, number of viable cells)
Experimental: Compounds 1, 3, 7, 9, 11, 13, 17, 19, 21, 27, 29, 31, 33, 35, 37, 39, 47, 49, 51, 57 and 69 were tested in a cytotoxicity assay with liver cells including an HCV replicon (5-2 Luc cells, 9-13 cells or Huh-7 cells). In the assay, cells were seeded onto 96-well plates (approx. 7500 cells/well in a volume of 90 μl) and grown for 24 hr at 37° C. On day 2, various concentrations of test compound (in a volume of 10 μl) were added to the wells and the cells were grown for an additional 48 hr at 37° C. On day 4, an ATP-dependent R-Luciferase assay (Cell Titer Glo assay) was performed to determine the number of viable cells.

[3] = system: HCV replicon (5-2 Luc replicon-comprising cells); test: HCV replicon assay (luciferase reporter); assay type: cell-based, Hepatitis C virus; details: Hepatitis C virus, read-out: Replicon (IC50, 50% reduction in luciferase emission)
Experimental: The inhibitory activity of certain exemplary compounds of the invention was confirmed using an HCV replicon assay. The HCV replicon can include such features as the HCV IRES, the HCV 3′ untranslated region, selected HCV genes encoding HCV polypeptides, selectable markers, and a reporter gene such as luciferase, GEP, etc. In the assay, actively dividing 5-2 Luc replicon-comprising cells were seeded at a density of between about 5,000 and 7,500 cells/well onto 96 well plates (about 90 μl of cells per well) and incubated at 37° C. and 5% CO2 for 24 hours. Then, the test compound (in a volume of about 10 μl) was added at various concentrations to each well and the cells were incubated for an additional 24 hours before luciferase assay. The cells were harvested, and HCV replication or translation was monitored via a reporter assay, e.g., a luciferase reporter assay. The media was aspirated from each cell and Bright-Glo ([…].) luciferase assay reagents were added to each well according to the manufacturer's instructions. In this assay, the amount of test compound that yielded a 50% reduction in luciferase emission (IC50) was determined.

[4] = second symbol of the Replicon/Western cell
[5] = first symbol of the Replicon/Western cell, 5-2 Luc replicon cells, 24 hours with compound

| Compound | pIC50 [1] | IC50 at 48 h [2] [µM] | pIC50 ([3]; 24 h) | pIC50 [1, 4] | pIC50 [3, 5] |
| --- | --- | --- | --- | --- | --- |
| O=C(Nc1ccnc(-c2cc(-c3c(Cl)cccc3Cl)no2)c1)C(Cl)Cl [Compound 9, 2,2-Dichloro-N-[2-[3-(2,6-dichlorophenyl)-5-isoxazolyl]-(4-pyridyl)] Acetamide] | > 5.00 | ≥ 10 | > 5.00 |  |  |
| O=C(Nc1cncc(-c2cc(-c3c(F)cccc3Cl)no2)c1)C(Cl)Cl [Compound 13, 2,2-Dichloro-N-[5-[3-(2-chloro-6-fluorophenyl)-5-isoxazolyl]-(3-pyridyl)] Acetamide] |  | 3 |  | > 5.00 | > 5.00 |
| COc1cccc(F)c1-c1cc(-c2cncc(NC(=O)C(Cl)Cl)c2)on1 [Compound 17, 272-Dichloro-N-[5-[3-(2-fluoro-6-methoxyphenyl)-5-isoxazolyl]-(3-pyridyl)] Acetamide] |  | ≥ 10 |  | > 5.00 | > 5.00 |
| Cc1cccc(C)c1-c1cc(-c2cncc(NC(=O)C(Cl)Cl)c2)on1 [Compound 21, 2,2-Dichloro-N-[5-[3-(2,6-dimethylphenyl)-5-isoxazolyl]-(3-pyridyl)] Acetamide] |  | ≥ 10 |  | < 5.00 | > 5.00 |
| O=C(Nc1cncc(-c2cc(-c3c(F)cccc3F)no2)c1)C(Cl)Cl [Compound 27, 2,2-Dichloro-N-[5-[3-(2,6-difluorophenyl)-5-isoxazolyl]-(3-pyridyl)] Acetamide] |  | ≥ 10 |  | > 5.00 | > 5.00 |
| COc1cccc(C(F)(F)F)c1-c1cc(-c2cc(NC(=O)C(Cl)Cl)ccn2)on1 [Compound 49, 2,2-Dichloro-N-[2-[3-(2-methoxy-6-trifluoromethylphenyl)-5-isoxazolyl]-(4-pyridyl)] Acetamide] |  | ≥ 10 |  | > 5.00 | > 5.00 |
| COc1cccc(C(F)(F)F)c1-c1cc(-c2cncc(NC(=O)C(Cl)Cl)c2)on1 [Compound 57, 2,2-Dichloro-N-[5-[3-(2-methoxy-6-trifluoromethylphenyl)-5-isoxazolyl]-(3-pyridyl)] Acetamide] |  | > 5 |  | > 5.00 | > 5.00 |
